US20210299098A1, “SELECTIVE ESTROGEN RECEPTOR MODULATOR FOR TREATMENT OF PANCREATIC CANCER” (CIPLA LIMITED, priority 2020, published 2021)

How the values were obtained:
[1] = used as oral contraceptive; cited from earlier work
estrogen receptor = conditions: according to literature; cited from earlier work
[2] = test system: BxPC3 pancreatic cancer cell line; assay: CellTiter-Blue cell viability assay, BxPC3; format: cell-based; conditions: Homo sapiens, BXPC-3, 96 hours treatment
Procedure: (§1) The in vitro anti-tumor activity of levormeloxifene or its pharmaceutically acceptable salt was evaluated in six human pancreatic cancer cell lines: AsPc 1 (A), BxPC3 (B), Miapaca2 (C), Panc 10.05 (D), SW1990 (E) and Panc 1 (F). AsPc 1 (A), BxPC3 (B), Miapaca2 (C), Panc 10.05 (D), SW1990 (E) and Panc 1 (F) were established at Oncotest from the corresponding human patient derived xenograft. CAPAN-2, HUP-T3 and PA-TU-8902 were purchased from DSMZ (Braunschweig, Germany). PANC-1 was purchased from CLS Cell Line Services GmbH (Eppelheim, Germany). BxPC-3, HPAC and MIA-Pa-Ca-2 were purchased from ATCC (Rockville, Md., USA). Authenticity of cell lines was confirmed at the DSMZ by STR (short tandem repeat) analysis, a PCR based DNA-fingerprinting methodology. Cell lines were routinely passaged once or twice weekly and maintained in culture for up to 20 passages. […] Briefly, cells were harvested from exponential phase cultures, counted and plated in 96-well flat-bottom microtiter plates at a cell density of 6,000-20,000 cells/well depending on the cell line's growth rate. […] Following an incubation period of up to four hours, fluorescence (FU) was measured by using the Enspire Multimode Plate Reader (excitation λ=531 nm, emission λ=615 nm). […]

[3] = test system: human pancreatic cancer cell lines; assay: CellTiter-Blue cell viability assay, panel of pancreatic cancer cell lines; format: cell-based
Procedure: The in vitro anti-tumor activity of levormeloxifene or its pharmaceutically acceptable salt was evaluated in six human pancreatic cancer cell lines: AsPc 1 (A), BxPC3 (B), Miapaca2 (C), Panc 10.05 (D), SW1990 (E) and Panc 1 (F).
AsPc 1 (A), BxPC3 (B), Miapaca2 (C), Panc 10.05 (D), SW1990 (E) and Panc 1 (F) were established at Oncotest from the corresponding human patient derived xenograft. CAPAN-2, HUP-T3 and PA-TU-8902 were purchased from DSMZ (Braunschweig, Germany). PANC-1 was purchased from CLS Cell Line Services GmbH (Eppelheim, Germany). BxPC-3, HPAC and MIA-Pa-Ca-2 were purchased from ATCC (Rockville, Md., USA). Authenticity of cell lines was confirmed at the DSMZ by STR (short tandem repeat) analysis, a PCR based DNA-fingerprinting methodology. Cell lines were routinely passaged once or twice weekly and maintained in culture for up to 20 passages. […]
The CellTiter-Blue® Cell Viability Assay (#G8081, Promega) was used according to manufacturer's instructions. Briefly, cells were harvested from exponential phase cultures, counted and plated in 96-well flat-bottom microtiter plates at a cell density of 6,000-20,000 cells/well depending on the cell line's growth rate. […] Following an incubation period of up to four hours, fluorescence (FU) was measured by using the Enspire Multimode Plate Reader (excitation λ=531 nm, emission λ=615 nm). […]

[4] = test system: Panc 10.05 pancreatic cancer cell line; assay: CellTiter-Blue cell viability assay, Panc10.05; format: cell-based; conditions: Homo sapiens, Panc1005; Panc10.05 cell line; 96 hours treatment
Procedure: as §1

HPAC cell line = assay: CellTiter-Blue cell viability assay, HPAC; format: cell-based; conditions: Homo sapiens, most resistant cell line, read-out: individual IC50
Description: as §1, with “AsPc” for “The in vitro anti-tumor activity of levormeloxifene or its pharmaceutically acceptable salt was evaluated in six human pancreatic cancer cell lines: AsPc 1 (A), BxPC3 (B), Miapaca2 (C), Panc 10.05 (D), SW1990 (E) and Panc 1 (F). AsPc”, “passages. All cells were grown at 37° C. in a humidified atmosphere with 5% CO2 in RPMI 1640 medium (25 mM HEPES, with L-glutamine, #FG1385, Biochrom, Berlin, Germany) supplemented with 10% (v/v) fetal calf serum (Sigma, Taufkirchen, Germany) and 0.1 mg/mL gentamicin (Life Technologies, Karlsruhe, Germany).” for “passages.”

[5] = test system: SW1990 pancreatic cancer cell line; assay: CellTiter-Blue cell viability assay, SW1990; format: cell-based; conditions: Homo sapiens, 96 hours treatment
Procedure: as §1

[6] = test system: AsPc 1 pancreatic cancer cell line; assay: CellTiter-Blue cell viability assay, AsPC1; format: cell-based; conditions: Homo sapiens, 96 hours treatment
Procedure: as §1

[7] = test system: Panc 1 pancreatic cancer cell line; assay: CellTiter-Blue cell viability assay, Panc1; format: cell-based; conditions: Homo sapiens, 96 hours treatment
Procedure: as §1

[8] = test system: Miapaca2 pancreatic cancer cell line; assay: CellTiter-Blue cell viability assay, Miapaca2; format: cell-based; conditions: Homo sapiens, MIA PaCa-2; Miapaca1 cell line as printed; 96 hours treatment
Procedure: as §1

PA-TU-8902 cell line = assay: CellTiter-Blue cell viability assay, PA-TU-8902; format: cell-based; conditions: Homo sapiens, PaTu 8902; PA-TU-8902, text value; read-out: individual IC50
Description: as §1, with “AsPc” for “The in vitro anti-tumor activity of levormeloxifene or its pharmaceutically acceptable salt was evaluated in six human pancreatic cancer cell lines: AsPc 1 (A), BxPC3 (B), Miapaca2 (C), Panc 10.05 (D), SW1990 (E) and Panc 1 (F). AsPc”, “passages. All cells were grown at 37° C. in a humidified atmosphere with 5% CO2 in RPMI 1640 medium (25 mM HEPES, with L-glutamine, #FG1385, Biochrom, Berlin, Germany) supplemented with 10% (v/v) fetal calf serum (Sigma, Taufkirchen, Germany) and 0.1 mg/mL gentamicin (Life Technologies, Karlsruhe, Germany).” for “passages.”

| SMILES | half-life [1] | receptor affinity relative to the D-isomer (estrogen receptor) | IC50 [2] | difference between the most sensitive and most resistant cell line ([3]; HUP-T3 vs HPAC IC50) | activity in all cell lines tested (concentration-effect curves) ([3]; sigmoidal concentration-effect curves) | IC50 [4] | IC50 (HPAC cell line) | IC50 [5] | IC50 [6] | IC50 [7] | IC50 [8] | IC50 (PA-TU-8902 cell line) |
| --- | --- | --- | --- | --- | --- | --- | --- | --- | --- | --- | --- | --- |
| COc1ccc2c(c1)OC(C)(C)C(c1ccccc1)C2c1ccc(OCCN2CCCC2)cc1 (stereo not drawn) [Centchroman, ormeloxifene] | about 168 hours | – | – | – | – | – | – | – | – | – | – | – |
| COc1ccc2c(c1)OC(C)(C)[C@@H](c1ccccc1)[C@@H]2c1ccc(OCCN2CCCC2)cc1 [levormeloxifene, (−)-3,4-trans-7-methoxy-2,2-dimethyl-3-phenyl-4-[4-[2-(pyrrolidin-1-yl)ethoxy]phenyl]chromane] | – | about 7 times | 21 µM | 7.4 fold | concentration-dependent activity | 24 µM | 5350 µM | 27 µM | 18 µM | 24 µM | 22 µM | 1030 µM |
